Measured values published in patent publication US20190106688A1, “FUSION PROTEIN FOR CRISPR/CAS SYSTEM AND COMPLEX COMPRISING THE SAME AND USES THEREOF” (KOREA INSTITUTE OF SCIENCE AND TECHNOLOGY, priority 2017, published 2019).

Tested on: A549 cells and A549 xenografts
Experiment: Immunoblot analysis of EGFR downstream signaling (ERK, AKT) in A549 cells and A549 xenografts
Assay type: cell-based
Conditions: in vitro and in vivo samples
Method: The treated cells or tumor tissues were lysed using an RIPA lysis buffer (Sigma) unsupplemented or supplemented with a phosphatase inhibitor+a protease inhibitor (Thermo Scientific). A total of 50 μg of protein was analyzed by immunoblotting via incubation at 4° C. overnight with Sprimary antibody specific to KRAS (Santa Cruz, 1:200 dilution), p-ERK (cell signal, 1:1000 dilution), ERK (Cell Signaling, 1:1000 dilution), and β-Actin (Abcam, 1:10000 dilution) and then incubation with secondary antibodies conjugated with horseradish peroxidase for 2 hours at room temperature. The proteins were visualized by chemicalluminescence using a Western ECL substrate (Bio-Rad) and luminescence images were analyzed by a LAS-3000 (Fujifilm). Band intensities were quantified using ImageJ software.
FIG. 6D illustrates immunoblot analysis of EGFR downstream signaling pathways in A549 cells and A549 xenografts.

SMILES: Cn1cnc2c(F)c(Nc3ccc(Br)cc3Cl)c(C(=O)NOCCO)cc21 [AZD6244]
- activation (phosphorylation) of ERK: inhibited only activation of ERK
